Earlier results, collected in patent US20230149295A1, “INFLAMMATORY BOWEL DISEASE STEM CELLS, AGENTS WHICH TARGET IBD STEM CELLS, AND USES RELATED THERETO” (University of Houston System, priority 2020, published 2023).

What was measured:
STAT1 = molecular target: T1, STAT1 (Homo sapiens, UniProt P42224); settings: cell-free assays
T1 sequence (P42224 1-750): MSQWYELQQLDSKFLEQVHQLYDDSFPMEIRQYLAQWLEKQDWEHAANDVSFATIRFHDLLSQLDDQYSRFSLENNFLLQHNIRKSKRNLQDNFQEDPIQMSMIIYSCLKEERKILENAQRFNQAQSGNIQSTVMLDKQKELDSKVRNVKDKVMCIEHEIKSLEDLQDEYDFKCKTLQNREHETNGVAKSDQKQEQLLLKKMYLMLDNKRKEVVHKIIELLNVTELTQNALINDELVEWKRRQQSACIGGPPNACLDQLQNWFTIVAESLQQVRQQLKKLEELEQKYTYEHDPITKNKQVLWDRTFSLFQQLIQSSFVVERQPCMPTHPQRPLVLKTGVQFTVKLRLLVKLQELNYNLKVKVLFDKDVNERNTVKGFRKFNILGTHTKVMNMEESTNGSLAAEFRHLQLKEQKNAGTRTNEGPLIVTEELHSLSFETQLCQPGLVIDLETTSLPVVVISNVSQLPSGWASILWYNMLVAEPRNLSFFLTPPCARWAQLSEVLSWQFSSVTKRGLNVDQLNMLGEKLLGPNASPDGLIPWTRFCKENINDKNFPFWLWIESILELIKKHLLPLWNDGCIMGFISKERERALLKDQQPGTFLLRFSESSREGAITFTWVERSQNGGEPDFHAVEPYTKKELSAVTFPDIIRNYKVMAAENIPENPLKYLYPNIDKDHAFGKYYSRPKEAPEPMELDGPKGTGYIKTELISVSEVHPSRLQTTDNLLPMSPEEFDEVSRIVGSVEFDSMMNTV

STAT3 = STAT3 (Homo sapiens, UniProt P40763); settings: cell-free assays; read-out: IC50 for inhibition of STAT3 activation and nuclear translocation
STAT3, sequence (P40763 whole entry, species assumed): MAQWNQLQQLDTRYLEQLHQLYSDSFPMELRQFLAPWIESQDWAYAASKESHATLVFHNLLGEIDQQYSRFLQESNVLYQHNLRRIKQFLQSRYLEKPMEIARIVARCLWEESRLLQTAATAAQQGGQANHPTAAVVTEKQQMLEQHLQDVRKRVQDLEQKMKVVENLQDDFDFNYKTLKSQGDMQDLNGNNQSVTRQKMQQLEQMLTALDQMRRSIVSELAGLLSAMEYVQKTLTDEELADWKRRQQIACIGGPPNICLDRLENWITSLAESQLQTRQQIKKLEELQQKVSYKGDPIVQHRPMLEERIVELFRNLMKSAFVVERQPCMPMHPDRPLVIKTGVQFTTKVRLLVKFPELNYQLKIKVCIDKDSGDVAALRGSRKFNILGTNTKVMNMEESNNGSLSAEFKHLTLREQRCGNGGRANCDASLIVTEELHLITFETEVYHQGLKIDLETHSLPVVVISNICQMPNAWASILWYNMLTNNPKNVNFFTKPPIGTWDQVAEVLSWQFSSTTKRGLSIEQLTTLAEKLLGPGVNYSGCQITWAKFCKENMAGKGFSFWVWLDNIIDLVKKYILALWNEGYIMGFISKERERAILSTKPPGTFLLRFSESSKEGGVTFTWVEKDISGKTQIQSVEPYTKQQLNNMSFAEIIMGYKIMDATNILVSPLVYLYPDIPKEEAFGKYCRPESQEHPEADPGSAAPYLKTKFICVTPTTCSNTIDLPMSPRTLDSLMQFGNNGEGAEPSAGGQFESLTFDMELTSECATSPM

selectivity for STAT3 over STAT1 (STAT1) | IC50 (STAT3) | SMILES | inhibition of ERBB2 phosphorylation (T7981) (ERBB2)
highly selectivity over STAT1 | 5.1 µM | O=[N+]([O-])c1ccc2c(c1)S(=O)(=O)C=C2 [Stattic] | –
– | – | C=CC(=O)Nc1cccc(Sc2nc(Nc3ccc(N4CCN(C)CC4)cc3)ncc2Cl)c1 [WZ8040] | does not inhibit
